This assay has as its target T1, PDE4B2 (Homo sapiens, UniProt Q07343).
T1 construct: made in house; host or cells: SF21 insect cells (baculovirus; virus prepared in SF9 cells)
As to the kind of experiment: Inhibition of PDE4B2 activity, modified [3H]cAMP SPA (scintillation proximity assay). The format is biochemical. The following applies: recombinant PDE4B2 expressed in SF21 insect cells; 0.5 μM cAMP; 15 min at 37° C.; read-out: Inhibition of the PDE4 activity, −log IC50(mol/l) (converted). On the procedure:
The PDE4B2 (GB no. M97515) was a gift of Prof. M. Conti (Stanford University, USA). It was amplified from the original plasmid (pCMV5) via PCR with primers. Rb9 (5′- […] -3′) and Rb 10 (5′- […] -3′) and cloned into the pCR-Bac vector (Invitrogen, Groningen, NL).
The recombinant baculovirus was prepared by means of homologous recombination in SF9 insect cells. The expression plasmid was cotransfected with Bac-N-Blue (Invitrogen, Groningen, NL) or Baculo-Gold DNA (Pharmingen, Hamburg) using a standard protocol (Pharmingen, Hamburg). Wt virus-free recombinant virus supernatant was selected using plaque assay methods. After that, high-titre virus supernatant was prepared by amplifying 3 times. PDE was expressed in SF21 cells by infecting 2×10^6 cells/ml with an MOI (multiplicity of infection) between 1 and 10 in serum-free SF900 medium (Life Technologies, Paisley, UK). […]
The SF21 insect cells were resuspended, at a concentration of approx. 10^7 cells/ml, in ice-cold (4° C.) homogenization buffer (20 mM Tris, pH 8.2, containing the following additions: 140 mM NaCl, 3.8 mM KCl, 1 mM EGTA, 1 mM MgCl2, 10 mM β-mercaptoethanol, 2 mM benzamidine, 0.4 mM Pefablock, 10 μM leupeptin, 10 μM pepstatin A, 5 μM trypsin inhibitor) and disrupted by ultrasonication. […] The protein content was determined by the Bradford method (BioRad, Munich) using BSA as the standard. […]
A general note: In a scintillation proximity assay essentially only radioactivity close to the scintillant gives light.

T1 sequence (Q07343 1-564 isoform Q07343-2): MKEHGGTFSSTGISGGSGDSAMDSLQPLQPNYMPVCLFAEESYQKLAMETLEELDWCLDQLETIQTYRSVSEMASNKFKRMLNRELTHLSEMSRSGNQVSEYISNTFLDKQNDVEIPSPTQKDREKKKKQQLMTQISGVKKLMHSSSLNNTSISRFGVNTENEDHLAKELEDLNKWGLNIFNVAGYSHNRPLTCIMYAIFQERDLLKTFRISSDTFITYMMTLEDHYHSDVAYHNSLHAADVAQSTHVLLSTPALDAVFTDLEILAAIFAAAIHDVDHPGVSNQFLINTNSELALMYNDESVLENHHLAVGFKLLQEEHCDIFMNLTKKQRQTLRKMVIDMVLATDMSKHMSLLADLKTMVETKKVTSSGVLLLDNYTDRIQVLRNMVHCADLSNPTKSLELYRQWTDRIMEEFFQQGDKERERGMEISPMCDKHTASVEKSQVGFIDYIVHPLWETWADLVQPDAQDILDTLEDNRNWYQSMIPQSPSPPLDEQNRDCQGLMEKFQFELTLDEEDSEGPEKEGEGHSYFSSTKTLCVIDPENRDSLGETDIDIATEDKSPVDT

For the compound `CCOc1cc2c(cc1OC)C(c1cccc(NC(=O)CCNC(N)=O)c1)=N[C@@H]1CC[C@@H](O)C[C@H]21` (racemic) [Compound 19, N-[3-((2RS,4aRS,10bRS)-9-Ethoxy-2-hydroxy-8-methoxy-1,2,3,4,4a,10b-hexahydro-phenanthridin-6-yl)-phenyl]-3-ureido-propionamide], the IC50 is 1.48 nM.

For the origin of these results see patent publication US20070191414A1, “Novel isoamido-substituted hydroxy-6-phenylphenanthridines” (Altana Pharma AG, priority 2004, published 2007).
